Measurements as given in patent US8916376B2, “Metal-binding peptides” (priority 2007, dated 2014).

Key:
E. coli BLR(DE3) cells [1] = assay: Multi-step selection of E. coli clone library under toxic agents; apparent MIC; type: cell-based; details: for concentration above which no bacterial growth was observed: 24 hours selection cycle, FIG. 2
Description: The pCRRL1 library was transformed into E. coli BLR(DE3) cells, which carry a T7 RNA polymerase gene under control of IPTG-regulated lacUV5 promoter. The number of individual clones was estimated to be ˜10^5. The clone library was allowed to grow for 4 hrs in order to obtain several replicates of it, and then split into parts intended for parallel evolution experiments using different toxic agents. Expression of the randomized ORF was induced by IPTG, and the multi-step selection experiment was started by adding appropriate amounts of NiCl2, AgNO3, or K2TeO3 to the cell cultures, as shown in FIG. 2 with the selection of the E. coli clones resistant to NiCl2 (a), AgNO3 (b), and K2TeO3 (c). Large filled circles represent bacterial cultures successfully growing at indicated concentrations of each toxic agent. […] Black arrows point to the most resistant bacterial cultures, from which individual clones have been isolated for further studies of their toxicity tolerance. Grey arrow marks the culture, which was used as a non-adapted control in tests of the bacterial resistance towards nickel, silver, and tellurite. […] A concentration gradient of the toxic agents was chosen to cover a range within which an MIC was expected to be found. Thus, at every step the selective pressure was adjusted depending on the achieved level of the toxicity tolerance to keep the evolving bacterial populations under subinhibitory conditions. Substantial increase in bacterial resistance to Ni^2+, Ag^+, and TeO3^2− was observed during four, five, and seven consecutive selection cycles, respectively. After that, no further change in toxicity tolerance was detected. During the selection procedure, the apparent MIC values increased from 4 to 10 mM NiCl2, from 0.03 to 0.90 mM AgNO3, and from 0.7 to 20 μM K2TeO3. Eight clones were isolated from each of the three evolved resistant populations by plating. These were tested for the dependence of growth on mini-gene expression by measuring OD600 after 24 hrs of cultivation in the presence of corresponding toxic agent, with and without IPTG. […] All eight Ni^2+-resistant clones harbored the same plasmid (designated as pCRRL1-N94-01) with a mini-gene variant coding for the peptide […] (SEQ ID NO 1), a structural model of which is shown in FIG. 2a. In addition, a 9-bp deletion was detected in the spacer region between the ORF and the transcription terminator. However, since no important element of the mini-gene operon was located there, the deletion was unlikely to affect the peptide expression. […] All TeO3^2−-resistant clones carried a version of plasmid pCRRL1-T507-01 that has a 225-bp deletion of the whole mini-gene transcriptional unit together with adjacent downstream sequence. This deletion obviously abolishes T7 RNA polymerase activity on the plasmid, making it irresponsive to IPTG induction.

E. coli BLR(DE3) cells [2] = assay: Dependence of growth under toxic agent on mini-gene expression (OD600, with and without IPTG); type: cell-based; details: for effect of IPTG-induced mini-gene expression on growth (OD600): resistant clones carrying the mini-gene, 24 hrs cultivation with the corresponding toxic agent, with and without IPTG
Description: The pCRRL1 library was transformed into E. coli BLR(DE3) cells, which carry a T7 RNA polymerase gene under control of IPTG-regulated lacUV5 promoter. The number of individual clones was estimated to be ˜10^5. The clone library was allowed to grow for 4 hrs in order to obtain several replicates of it, and then split into parts intended for parallel evolution experiments using different toxic agents. Expression of the randomized ORF was induced by IPTG, and the multi-step selection experiment was started by adding appropriate amounts of NiCl2, AgNO3, or K2TeO3 to the cell cultures, as shown in FIG. 2 with the selection of the E. coli clones resistant to NiCl2 (a), AgNO3 (b), and K2TeO3 (c). Large filled circles represent bacterial cultures successfully growing at indicated concentrations of each toxic agent. […] Black arrows point to the most resistant bacterial cultures, from which individual clones have been isolated for further studies of their toxicity tolerance. Grey arrow marks the culture, which was used as a non-adapted control in tests of the bacterial resistance towards nickel, silver, and tellurite. […] A concentration gradient of the toxic agents was chosen to cover a range within which an MIC was expected to be found. […] After that, no further change in toxicity tolerance was detected. […] In addition, a 9-bp deletion was detected in the spacer region between the ORF and the transcription terminator. […]
The existence of a positive correlation between the level of mini-gene expression and the extent of toxicity tolerance would strongly argue in favor of a role for the mini-gene in the mechanism of stress resistance of the evolved clones. […] Comparison of the bacterial growth parameters measured in the presence and absence of IPTG made it possible to distinguish the specific effect of mini-gene expression on culture survival and propagation from the basal resistance to the hostile environment acquired through adaptive genomic mutations. […]

[3] = E. coli BLR(DE3) pCRRL1 library, start of the selection procedure
[4] = evolved resistant population, end of the selection procedure

Row | Compound | concentration above which no bacterial growth was observed (E. coli BLR(DE3) cells [1]) | apparent MIC (E. coli BLR(DE3) cells [1]; [3]) [µM] | apparent MIC (E. coli BLR(DE3) cells [1]; [4]) [µM] | concentration at which culture was able to grow (E. coli BLR(DE3) cells [2]; non-adapted control culture, insensitive to IPTG) | effect of IPTG-induced mini-gene expression on growth (OD600) (E. coli BLR(DE3) cells [2])
1 | O=[N+]([O-])[O-].[Ag+] [AgNO3] | above 0.9 mM | 30 | 900 |  | 
2 | O=[Te]([O-])[O-].[K+].[K+] [K2TeO3] | above 18 mM | 0.7 | 20 |  | 
3 | [Cl][Ni][Cl] [NiCl2] |  | 4000 | 10000 | below 4 mM | 
4 | MSHATATPASRRRLPLRS [SEQ ID NO 2, 18-mer peptide encoded by the mini-gene of plasmid pCRRL1-A226-01 in Ag+-resistant E. coli clones] |  |  |  |  | not affected by IPTG
5 | MSHAYFVCNRCDSSNHSAHE [SEQ ID NO 1, 20-mer peptide encoded by the mini-gene of plasmid pCRRL1-N94-01 in Ni2+-resistant E. coli clones] |  |  |  |  | Significant IPTG-induced growth improvement
